Experiments:
[1] = test system: Beet Armyworm (Spodoptera exigua, LAPHEG); experiment: Bioassay on Beet Armyworm (BAW), 128-well diet tray assay; assay type: in vivo; conditions: 168 h, 50 μg/cm^2 on artificial diet, second instar larvae, 25° C., five to seven days, average of eight wells, read-out: BAW % Control (or Mortality) rating
Method: (§1) Example A: Bioassays on Beet Armyworm (Spodoptera exigua, LAPHEG) (“BAW”) and Cabbage Looper (Trichoplusia ni, TRIPNI) (“CL”)
(§2) Certain molecules disclosed in this document were tested against BAW and CL using procedures described in the following examples. In the reporting of the results, the “BAW & CL Rating Table” was used (See Table Section).
Bioassays on BAW were conducted using a 128-well diet tray assay. One to five second instar BAW larvae were placed in each well (3 mL) of the diet tray that had been previously filled with 1 mL of artificial diet to which 50 μg/cm^2 of the test molecule (dissolved in 50 μL of 90:10 acetone-water mixture) had been applied (to each of eight wells) and then allowed to dry. Trays were covered with a clear self-adhesive cover, vented to allow gas exchange, and held at 25° C., 14:10 light-dark for five to seven days. Percent mortality was recorded for the larvae in each well; activity in the eight wells was then averaged. The results are indicated in the table entitled “Table ABC: Biological Results” (See Table Section).

[2] = test system: Cabbage Looper (Trichoplusia ni, TRIPNI); experiment: Bioassay on Cabbage Looper (CL), 128-well diet tray assay; assay type: in vivo; conditions: 168 h, 50 μg/cm^2 on artificial diet, second instar larvae, 25° C., five to seven days, average of eight wells, read-out: CL % Control (or Mortality) rating
Method: as §1, §2
Bioassays on CL were conducted using a 128-well diet tray assay. One to five second instar CL larvae were placed in each well (3 mL) of the diet tray that had been previously filled with 1 mL of artificial diet to which 50 μg/cm^2 of the test molecule (dissolved in 50 μL of 90:10 acetone-water mixture) had been applied (to each of eight wells) and then allowed to dry. Trays were covered with a clear self-adhesive cover, vented to allow gas exchange, and held at 25° C., 14:10 light-dark for five to seven days. Percent mortality was recorded for the larvae in each well; activity in the eight wells was then averaged. The results are indicated in the table entitled “Table ABC: Biological Results” (See Table Section).

| SMILES | mortality at 50 µg/cm2 [1] | mortality at 50 µg/cm2 [2] |
| --- | --- | --- |
| Cc1ccc(C(C)C)c(N2C(=O)CS/C2=N\C(=O)Nc2ccc(CCc3ncn(-c4ccc(OC(F)(F)F)cc4)n3)cc2)c1 [F1, (Z)-1-(3-(2-isopropyl-5-methylphenyl)-4-oxothiazolidin-2-ylidene)-3-(4-(2-(1-(4-(trifluoromethoxy)phenyl)-1H-1,2,4-triazol-3-yl)ethyl)phenyl)urea] | 50 to 100% | 50 to 100% |
| Cc1ccc(C(C)C)c(N2C(=O)CS/C2=N\C(=O)Nc2ccc(CCc3ncn(-c4ccc(OC(F)(F)F)cc4)n3)c(C)c2)c1 [F2, (Z)-1-(3-(2-Isopropyl-5-methylphenyl)-4-oxothiazolidin-2-ylidene)-3-(3-methyl-4-(2-(1-(4-(trifluoromethoxy)phenyl)-1H-1,2,4-triazol-3-yl)ethyl)phenyl)urea] | 50 to 100% | 50 to 100% |
| Cc1ccc(F)c(N2C(=O)CS/C2=N\C(=O)Nc2ccc(CCc3ncn(-c4ccc(OC(F)(F)F)cc4)n3)cc2)c1 [F3, (Z)-1-(3-(2-Fluoro-5-methylphenyl)-4-oxothiazolidin-2-ylidene)-3-(4-(2-(1-(4-(trifluoromethoxy)phenyl)-1H-1,2,4-triazol-3-yl)ethyl)phenyl)urea] | 50 to 100% | 50 to 100% |
| Cc1ccc(C(F)(F)F)c(N2C(=O)CS/C2=N\C(=O)Nc2ccc(CCc3ncn(-c4ccc(OC(F)(F)F)cc4)n3)cc2)c1 [F5, (Z)-1-(3-(5-Methyl-2-(trifluoromethyl)phenyl)-4-oxothiazolidin-2-ylidene)-3-(4-(2-(1-(4-(trifluoromethoxy)phenyl)-1H-1,2,4-triazol-3-yl)ethyl)phenyl)urea] | 50 to 100% | 50 to 100% |
| Cc1ccc(Cl)c(N2C(=O)CS/C2=N\C(=O)Nc2ccc(CCc3ncn(-c4ccc(OC(F)(F)F)cc4)n3)cc2)c1 [F6, (Z)-1-(3-(2-Chloro-5-methylphenyl)-4-oxothiazolidin-2-ylidene)-3-(4-(2-(1-(4-(trifluoromethoxy)phenyl)-1H-1,2,4-triazol-3-yl)ethyl)phenyl)urea] | 50 to 100% | 50 to 100% |
| CCCc1ccc(C)cc1N1C(=O)CS/C1=N\C(=O)Nc1ccc(CCc2ncn(-c3ccc(OC(F)(F)F)cc3)n2)cc1 [F7, (Z)-1-(3-(5-Methyl-2-propylphenyl)-4-oxothiazolidin-2-ylidene)-3-(4-(2-(1-(4-(trifluoromethoxy)phenyl)-1H-1,2,4-triazol-3-yl)ethyl)phenyl)urea] | 50 to 100% | 50 to 100% |
| CCOc1ccc(C)cc1N1C(=O)CS/C1=N\C(=O)Nc1ccc(CCc2ncn(-c3ccc(OC(F)(F)F)cc3)n2)cc1 [F8, (Z)-1-(3-(2-Ethoxy-5-methylphenyl)-4-oxothiazolidin-2-ylidene)-3-(4-(2-(1-(4-(trifluoromethoxy)phenyl)-1H-1,2,4-triazol-3-yl)ethyl)phenyl)urea] | 50 to 100% | 50 to 100% |
| Cc1cc(N2C(=O)CS/C2=N\C(=O)Nc2ccc(CCc3ncn(-c4ccc(OC(F)(F)F)cc4)n3)cc2)c(C(C)C)cc1F [F9, (Z)-1-(3-(4-Fluoro-2-isopropyl-5-methylphenyl)-4-oxothiazolidin-2-ylidene)-3-(4-(2-(1-(4-(trifluoromethoxy)phenyl)-1H-1,2,4-triazol-3-yl)ethyl)phenyl)urea] | 50 to 100% | 50 to 100% |
| CCC(C)Oc1ccc(C)cc1N1C(=O)CS/C1=N\C(=O)Nc1ccc(CCc2ncn(-c3ccc(OC(F)(F)F)cc3)n2)cc1 (stereo not shown) [F10, (Z)-1-(3-(2-(sec-Butoxy)-5-methylphenyl)-4-oxothiazolidin-2-ylidene)-3-(4-(2-(1-(4-(trifluoromethoxy)phenyl)-1H-1,2,4-triazol-3-yl)ethyl)phenyl)urea] | 50 to 100% | 50 to 100% |
| Cc1ccc(OC(C)C)c(N2C(=O)CS/C2=N\C(=O)Nc2ccc(CCc3ncn(-c4ccc(OC(F)(F)F)cc4)n3)cc2)c1 [F11, (Z)-1-(3-(2-Isopropoxy-5-methylphenyl)-4-oxothiazolidin-2-ylidene)-3-(4-(2-(1-(4-(trifluoromethoxy)phenyl)-1H-1,2,4-triazol-3-yl)ethyl)phenyl)urea] | 50 to 100% | 50 to 100% |
| Cc1ccc(OC(F)(F)F)c(N2C(=O)CS/C2=N\C(=O)Nc2ccc(CCc3ncn(-c4ccc(OC(F)(F)F)cc4)n3)cc2)c1 [F12, (Z)-1-(3-(5-Methyl-2-(trifluoromethoxy)phenyl)-4-oxothiazolidin-2-ylidene)-3-(4-(2-(1-(4-(trifluoromethoxy)phenyl)-1H-1,2,4-triazol-3-yl)ethyl)phenyl)urea] | 50 to 100% | 50 to 100% |
| Cc1ccc(OCC(F)(F)F)c(N2C(=O)CS/C2=N\C(=O)Nc2ccc(CCc3ncn(-c4ccc(OC(F)(F)F)cc4)n3)cc2)c1 [F13, (Z)-1-(3-(5-Methyl-2-(2,2,2-trifluoroethoxy)phenyl)-4-oxothiazolidin-2-ylidene)-3-(4-(2-(1-(4-(trifluoromethoxy)phenyl)-1H-1,2,4-triazol-3-yl)ethyl)phenyl)urea] | 50 to 100% | 50 to 100% |
| COC(=O)c1cc(CCc2ncn(-c3ccc(OC(F)(F)F)cc3)n2)ccc1NC(=O)/N=C1\SCC(=O)N1c1cc(C)ccc1C(C)C [F16, Methyl (Z)-2-(3-(3-(2-isopropyl-5-methylphenyl)-4-oxothiazolidin-2-ylidene)ureido)-5-(2-(1-(4-(trifluoromethoxy)phenyl)-1H-1,2,4-triazol-3-yl)ethyl)benzoate] | 50 to 100% | 50 to 100% |
| Cc1ccc(C(C)C)c(N2C(=O)CS/C2=N\C(=O)Nc2ccc(CCc3ncn(-c4ccc(OC(F)(F)F)cc4)n3)cc2F)c1 [F17, (Z)-1-(2-Fluoro-4-(2-(1-(4-(trifluoromethoxy)phenyl)-1H-1,2,4-triazol-3-yl)ethyl)phenyl)-3-(3-(2-isopropyl-5-methylphenyl)-4-oxothiazolidin-2-ylidene)urea] | 50 to 100% | 50 to 100% |
| Cc1ccc(C(C)C)c(N2C(=O)CS/C2=N\C(=O)Nc2ccc(CCc3ncn(-c4ccc(OC(F)(F)F)cc4)n3)cc2Cl)c1 [F18, (Z)-1-(2-Chloro-4-(2-(1-(4-(trifluoromethoxy)phenyl)-1H-1,2,4-triazol-3-yl)ethyl)phenyl)-3-(3-(2-isopropyl-5-methylphenyl)-4-oxothiazolidin-2-ylidene)urea] | 50 to 100% | 50 to 100% |
| Cc1ccc(C(C)C)c(N2C(=O)CS/C2=N\C(=O)Nc2c(F)cc(CCc3ncn(-c4ccc(OC(F)(F)F)cc4)n3)cc2F)c1 [F19, (Z)-1-(2,6-Difluoro-4-(2-(1-(4-(trifluoromethoxy)phenyl)-1H-1,2,4-triazol-3-yl)ethyl)phenyl)-3-(3-(2-isopropyl-5-methylphenyl)-4-oxothiazolidin-2-ylidene)urea] | 50 to 100% | 50 to 100% |
| COc1cc(CCc2ncn(-c3ccc(OC(F)(F)F)cc3)n2)ccc1NC(=O)/N=C1\SCC(=O)N1c1cc(C)ccc1C(C)C [F20, (Z)-1-(3-(2-Isopropyl-5-methylphenyl)-4-oxothiazolidin-2-ylidene)-3-(2-methoxy-4-(2-(1-(4-(trifluoromethoxy)phenyl)-1H-1,2,4-triazol-3-yl)ethyl)phenyl)urea] | 50 to 100% | 50 to 100% |

Source: US9661854B2, “Molecules having pesticidal utility, and intermediates, compositions, and processes, related thereto” (Dow AgroSciences LLC, priority 2015, dated 2017)
